“Also recorded” adds a separate entry of the source. Values belong to the molecule of their own block, whether it stands above or below them. Non-standard residues stand in square brackets, D forms with d. Residues, ends and D or L forms follow the SMILES beside them. *: point of attachment. X1 = O=C(CCCC[C@@H]1SC[C@@H]2NC(=O)N[C@@H]21)NCCCOCCOCCOCCCN*; PEG12 = NCCOCCOCCOCCOCCOCCOCCOCCOCCOCCOCCOCCOCCC(=O)O
Tests used:
H1299 cells = test: Cell binding and internalization by flow cytometry, relative (normalized) uptake of peptide-streptavidin-phycoerythrin; type: cell-based, human; settings: for Bmax (best-fit): Supplementary Table 2, normalized binding; for fold decrease in affinity: C-terminal truncation versus full-length monomer
Experimental: MGS4 was initially selected by phage display biopanning of a peptide library on live cells. […] As such, multivalent binding is often required. To ascertain whether multivalent binding is required for MGS4 internalization, monomeric (MGS4_V2) and tetrameric (MGS4_V1) peptides were synthesized and labeled as described (Supplementary Figure 1). After incubation of varying peptide concentrations on live cells, surface-bound peptide was removed by low pH washes, as well as trypsinization. Relative internalization was measured by flow cytometry to determine an EC50 value which represents the concentration of peptide producing half-maximal internalization. This measurement is dependent on the affinity of the peptide for its cellular target and the rate of internalization. This is a more accurate representation of the biological situation and useful in evaluating the peptides as drug delivery agents. As expected for receptor-mediated endocytosis, uptake of MGS4 is saturable with increasing concentration.
Fig. 1 Monomeric and tetrameric MGS4 have similar binding, internalization and subcellular location. a Binding and internalization of tetrameric MGS4_V1 and monomeric MGS4_V2 on live H1299 cells in culture. Cells were incubated with the peptide conjugated to streptavidin-phycoerythrin for 1 h at 37 °C. Non-internalized peptide was removed and the cells were analyzed by flow cytometry. b H1299 cells were incubated with MGS4_V1 or MGS4_V2 conjugated to streptavidin-Alexa Fluor 555 (red) for 1 h, washed, fixed and counterstained with WGA-Alexa Fluor 488 (green, cell membrane) and DAPI (blue, nuclei) and analyzed by fluorescence microscopy. The scale bar represents 20 µm. MGS4_V1 and MGS4_V2 internalize to a similar degree and localize to a similar destination. c Truncated monomeric MGS4 peptides have similar EC50 as the parental full-length peptide. Individual measurements are shown. The mean is shown as an “X” and black error bars represent standard error for a minimum of three experimental replicates (SEM). All original binding data and nonlinear regression analysis of the data are included in the supplementary materials.
Biotinylated peptide was conjugated to streptavidin-R-phycoerythrin or streptavidin-Alexa Fluor 647 (1:1 molar ratio) for 30 min. The open binding sites on streptavidin were quenched with RPMI 1640 and diluted to the indicated concentration. Tumor cells were grown to 90% confluency in a 12 well plate, then incubated with 500 µl peptide-dye conjugate at 37 °C. After 1 h, peptide was removed, and the cells were washed 3x with PBS (137 mM NaCl, 2.7 mM KCl, 10 mM Na2HPO4, 1.8 mM KH2PO4, pH 7.4), 2x with 0.1 M HCl-glycine pH2.2 in 0.9% NaCl, and 1x PBS rinse. Cells were removed by trypsinization. Flow cytometry was performed on a BD FACSCelesta, and data were analyzed on Flowing software. Cells were gated based on the forward and side scatter to include only viable cells and a minimum of 10,000 events were counted. A region containing <5% of the cells in the negative control was established, and relative peptide uptake by the mean fluorescence intensity of that population. For absolute peptide uptake per cell, a standard curve was generated using Quantum™ Alexa Fluor 647 microspheres (Bangs Laboratory, Fishers, IN). A representative linear regression showing the correlation of molecule equivalents soluble fluorophores (MESF) vs the mean fluorescence intensity (MFI) is shown in Supplemental Figure 6. Cells were gated based on the forward and side scatter to include only viable cells and a minimum of 10,000 events were counted. MFI was determined at 50% at peak height. Molecules internalized per cell were determined by the standard curve relating MESF to MFI and divided by the number dye molecules/MGS conjugate. An example is shown in supplemental Figure 7. GraphPad Prism® was used for non-linear regression curve fitting to calculate an EC50. […]

Stability in human serum = type: in vitro ADME; settings: 100% human serum, 48 h, 37 °C, serum proteins precipitated, analytical HPLC, MALDI TOF/TOF MS
Experimental: To address if acetylation is effective in reducing serum degradation of MGS4, acetylated (MGS4_V8) and non-acetylated (MGS4_V4) peptides were dissolved in human serum and incubated for 48 h at 37 °C. The peptides were monitored by analytical HPLC, and products were verified via MALDI TOF/TOF™ MS. […] Instead, a mixture of peptide fragments is detected, none of which correspond to the mass of the starting peptide (Supplemental Table 1 and Supplemental Fig. 2). The major products are shorter fragments corresponding to the loss of the five N-terminal amino acids. Fragments related to QSFYT-PEG11, SFYT-PEG11 and FYT-PEG11 are observed.
Supplemental Figure 1. […]
M GS4_V4 (non-acetylated, panel a) and M GS4_V8 (acetylated, panel b ) were incubated in 100% human serum for 0 and 48-hours. Serum proteins were precipitated, and the peptide was analyzed by analytical
HPLC. The mass of the peptide and degradation products were determined by MALDI MS and are […]
MGS4_V8, MGS4_V9, or MGS4_V10 were conjugated with streptavidin-Alexa Fluor 650 and were incubated with the indicated cell line for 1 hour. Non-internalized peptide was rem ov ed, and the mean number of peptides internalized per cell was determined to calculate the EC50. […]
Supplemental Figure 4 : Peptide-Streptavidin conjugates are nontoxic to cells. a. […] After 72 hours, viability was measured. […]

100% human serum = settings: 37 °C, up to 48 h
[1] = H1299 cells, 1 h at 37 °C, normalized uptake, one-site specific binding fit, Average ± SEM, minimum 3 replicates

Molecule: CC(C)[C@H](NC(=O)[C@H](C)NC(=O)[C@H](Cc1c[nH]cn1)NC(=O)[C@@H](N)Cc1ccccc1)C(=O)N1CCC[C@H]1C(=O)N[C@@H](CCC(N)=O)C(=O)N[C@@H](CO)C(=O)N[C@@H](Cc1ccccc1)C(=O)N[C@@H](Cc1ccc(O)cc1)C(=O)N[C@H](C(=O)N[C@@H](C)C(=O)N1CCC[C@H]1C(=O)NCCOCCOCCOCCOCCOCCOCCOCCOCCOCCOCCOCCOCCC(=O)N[C@@H](CCC(=O)NCCCOCCOCCOCCCNC(=O)CCCC[C@@H]1SC[C@@H]2NC(=O)N[C@@H]21)C(N)=O)[C@@H](C)O [MGS4_V2] (H-FHAVPQSFYTAP[PEG12]E(X1)-NH2)
Bmax (best-fit) (H1299 cells): 1.065

Molecule: CC(C)[C@H](NC(=O)[C@H](C)NC(=O)[C@H](Cc1c[nH]cn1)NC(=O)[C@@H](N)Cc1ccccc1)C(=O)N1CCC[C@H]1C(=O)N[C@@H](CCC(N)=O)C(=O)N[C@@H](CO)C(=O)N[C@@H](Cc1ccccc1)C(=O)N[C@@H](Cc1ccc(O)cc1)C(=O)N[C@H](C(=O)N[C@@H](C)C(=O)NCCOCCOCCOCCOCCOCCOCCOCCOCCOCCOCCOCCOCCC(=O)N[C@@H](CCC(=O)NCCCOCCOCCOCCCNC(=O)CCCC[C@@H]1SC[C@@H]2NC(=O)N[C@@H]21)C(N)=O)[C@@H](C)O [MGS4_V3] (H-FHAVPQSFYTA[PEG12]E(X1)-NH2)
fold decrease in affinity (H1299 cells): 3-5 fold
Bmax (best-fit) (H1299 cells): 1.247

Molecule: CC(C)[C@H](NC(=O)[C@H](C)NC(=O)[C@H](Cc1c[nH]cn1)NC(=O)[C@@H](N)Cc1ccccc1)C(=O)N1CCC[C@H]1C(=O)N[C@@H](CCC(N)=O)C(=O)N[C@@H](CO)C(=O)N[C@@H](Cc1ccccc1)C(=O)N[C@@H](Cc1ccc(O)cc1)C(=O)N[C@H](C(=O)NCCOCCOCCOCCOCCOCCOCCOCCOCCOCCOCCOCCOCCC(=O)N[C@@H](CCC(=O)NCCCOCCOCCOCCCNC(=O)CCCC[C@@H]1SC[C@@H]2NC(=O)N[C@@H]21)C(N)=O)[C@@H](C)O [MGS4_V4] (H-FHAVPQSFYT[PEG12]E(X1)-NH2)
peptide after incubation in human serum (Stability in human serum): none of the starting material
fold decrease in affinity (H1299 cells): 3-5 fold
Bmax (best-fit) (H1299 cells): 1.402

Molecule: CC(=O)N[C@@H](Cc1ccccc1)C(=O)N[C@@H](Cc1c[nH]cn1)C(=O)N[C@@H](C)C(=O)N[C@H](C(=O)N1CCC[C@H]1C(=O)N[C@@H](CCC(N)=O)C(=O)N[C@@H](CO)C(=O)N[C@@H](Cc1ccccc1)C(=O)N[C@@H](Cc1ccc(O)cc1)C(=O)N[C@H](C(=O)N[C@@H](C)C(=O)N1CCC[C@H]1C(=O)NCCOCCOCCOCCOCCOCCOCCOCCOCCOCCOCCOCCOCCC(=O)N[C@@H](CCC(=O)NCCCOCCOCCOCCCNC(=O)CCCC[C@@H]1SC[C@@H]2NC(=O)N[C@@H]21)C(N)=O)[C@@H](C)O)C(C)C [MGS4_V7] (Ac-FHAVPQSFYTAP[PEG12]E(X1)-NH2)
Bmax (best-fit) (H1299 cells): 1.470

Molecule: AcFHAVPQSFYT-PEG11
not cleaved (100% human serum): only full-length peptide observed after 48 h; 93.4% of peak at 48 Hours (93.5% in starting material)

Molecule: FHAVPQSFY*** [MGS4_V5, monomeric MGS4 truncated by three C-terminal amino acids]
EC50 (nM) (H1299 cells; [1]): Not Detected^2

cleaved bond (100% human serum): P-Q, major, 48 Hours
Molecule: FHAVPQSFYT-PEG11
fragment found (100% human serum): SFYT-PEG11, 48 Hours; also recorded: FYT-PEG11, 48 Hours

Molecule: FHAVPQSFYTAP [MGS4_V1, tetrameric full-length MGS4 peptide]
EC50 (H1299 cells; [1]): 3.6 ± 0.49 nM
Bmax (best-fit) (H1299 cells): 1.171
